Molecular target: bone resorption (Rattus norvegicus)

Row | SMILES | IC50
1 | O=P(O)(O)C(O)(CCNCCCSc1ccccc1)P(=O)(O)O | 18.2 nM
2 | Cc1cnc(NC(P(=O)(O)O)P(=O)(O)O)s1 | 5.13 nM
3 | O=P(O)(O)C(Nc1ncc[nH]1)P(=O)(O)O | 1950 nM
4 | CN(CCCSc1ccccc1)CCC(O)(P(=O)(O)O)P(=O)(O)O | 0.618 nM
5 | O=P(O)(O)C(Nc1nccs1)P(=O)(O)O | 18.2 nM
6 | Cc1cccc(OCCCN(C)CCC(O)(P(=O)(O)O)P(=O)(O)O)c1 | 4.27 nM
7 | O=P(O)(O)C(Nc1ncc(CCc2ccccc2)s1)P(=O)(O)O | 7.08 nM
8 | O=P(O)(O)C(O)(CCn1ccnc1)P(=O)(O)O | 157 nM
9 | CN(CCCSc1ccc(Cl)cc1)CCC(O)(P(=O)(O)O)P(=O)(O)O | 18 nM
10 | CN(CCc1ccccc1)CCC(O)(P(=O)(O)O)P(=O)(O)O | 3.92 nM
11 | O=P(O)(O)C(O)(CCNCCCOc1ccccc1)P(=O)(O)O | 3.25 nM
12 | CN(CCCCCCc1ccccc1)CCC(O)(P(=O)(O)O)P(=O)(O)O | 3630 nM
13 | CCCN(CCCOc1ccccc1)CCC(O)(P(=O)(O)O)P(=O)(O)O | 24 nM
14 | CN(CCOc1ccc(Cl)cc1)CCC(O)(P(=O)(O)O)P(=O)(O)O | 4.07 nM
15 | CN(CCCCCCOc1ccccc1)CCC(O)(P(=O)(O)O)P(=O)(O)O | 17600 nM
16 | O=P(O)(O)C(O)(CCNCCCCc1ccccc1)P(=O)(O)O | 2.69 nM
17 | CCCCN(CCCOc1ccccc1)CCC(O)(P(=O)(O)O)P(=O)(O)O | 1170 nM
18 | CC(C)c1cnc(NC(P(=O)(O)O)P(=O)(O)O)s1 | 632 nM
19 | O=P(O)(O)C(O)(CCNCCc1ccccc1)P(=O)(O)O | 885 nM
20 | Cc1ncn(CC(O)(P(=O)(O)O)P(=O)(O)O)c1C | 5 nM
21 | O=P(O)(O)C(O)(Cn1cncn1)P(=O)(O)O | 2200 nM

Continued, values first:

Row | IC50 | SMILES
22 | 6.15 nM | CCCc1cnc(NC(P(=O)(O)O)P(=O)(O)O)s1
23 | 4.82 nM | CCc1cnc(NC(P(=O)(O)O)P(=O)(O)O)s1
24 | 1.97 nM | Cn1ccnc1CC(O)(P(=O)(O)O)P(=O)(O)O
25 | 1.66 nM | CN(CCCc1ccc(Cl)cc1)CCC(O)(P(=O)(O)O)P(=O)(O)O
26 | 3.12 nM | CN(CCCOc1ccc(Cl)cc1)CCC(O)(P(=O)(O)O)P(=O)(O)O
27 | 1.45 nM | CN(CCCOc1ccc(F)cc1)CCC(O)(P(=O)(O)O)P(=O)(O)O
28 | 246 nM | CN(CCCOc1ccccc1)CCCC(O)(P(=O)(O)O)P(=O)(O)O
29 | 72.1 nM | CCN(CCCOc1ccccc1)CCC(O)(P(=O)(O)O)P(=O)(O)O
30 | 1.29 nM | CN(CCCOc1ccccc1)CCC(O)(P(=O)(O)O)P(=O)(O)O
31 | 55.8 nM | O=P(O)(O)C(O)(CCNCCCc1ccccc1)P(=O)(O)O
32 | 347 nM | Cc1csc(NC(P(=O)(O)O)P(=O)(O)O)n1
33 | 10.1 nM | CN(CCCCOc1ccccc1)CCC(O)(P(=O)(O)O)P(=O)(O)O
34 | 2.82 nM | COc1ccc(OCCCN(C)CCC(O)(P(=O)(O)O)P(=O)(O)O)cc1
35 | 5.13 nM | Cc1nc[nH]c1CC(O)(P(=O)(O)O)P(=O)(O)O
36 | 185 nM | O=P(O)(O)C(Nc1nccn1Cc1ccccc1)P(=O)(O)O
37 | 18.5 nM | Cn1ccnc1NC(P(=O)(O)O)P(=O)(O)O
38 | 2.59 nM | CN(CCCc1ccccc1)CCC(O)(P(=O)(O)O)P(=O)(O)O
39 | 17.8 nM | O=P(O)(O)C(O)(Cc1ncc[nH]1)P(=O)(O)O
40 | 66.7 nM | O=P(O)(O)C(O)(CCc1cnc[nH]1)P(=O)(O)O
41 | 2.69 nM | CCCCc1cnc(NC(P(=O)(O)O)P(=O)(O)O)s1
42 | 733 nM | O=P(O)(O)C(Cc1nccs1)P(=O)(O)O
43 | 64.6 nM | O=C(c1ccccc1)n1ccnc1CC(O)(P(=O)(O)O)P(=O)(O)O
